Paper PMC8217813, “Bridging Computational Vaccinology and Vaccine Development Through Systematic Identification, Characterization, and Downselection of Conserved and Variable Circumsporozoite Protein CD4 T Cell Epitopes From Diverse Plasmodium falciparum Strains” (Frontiers in Immunology, 2021)
Peptide text beside a SMILES is read from it.

Key:
[1] = target: T1, HLA A*2402 (Homo sapiens, UniProt P04439, D101N/D140Y/D185E/E176V/E190D/F33S/G103R/G107R/I119L/I121M/I306V/K335N/L105A/L180Q/L300P/N151K/N90K/Q86E/Q94H/R106L/R138H/R89G/T104I/T345S/V100E/W191G/Y123F); experiment: In vitro class I HLA binding competition assay (fluorescence polarization); details: allele A2402; cell-free competition with fluorescently labeled control peptide, fluorescence polarization at 72 hours
T1 construct: Pure Protein, LLC (ran the assay)
Experimental: The cell-free class I HLA binding assay in use at Pure Protein, LLC allows for in vitro quantification of peptide-HLA binding affinity in a competition format. In this assay, a fluorescently labeled, high binding, control peptide is loaded onto 384-well ½-area plates along with unlabeled experimental peptides. To remove endogenous peptides and render the HLA A and B molecules receptive to binding, HLA is heated at 53°C for 15 minutes and immediately added to the assay. The mixture is then allowed to stand for three days. […] Binding of experimental peptides is expressed as the percent inhibition of the labeled control peptide (experimental fluorescence / control fluorescence, multiplied by 100). The percent inhibition values for each experimental peptide (across a range of molar concentrations) are used to calculate the concentration which inhibits 50% of the labeled control peptide’s specific binding. This value is referred to as the peptide’s IC50.

[2] = target: HLA B*4402 (Homo sapiens, UniProt P01889, A223V/A65T/A93T/A95T/D201E/D98Y/E176V/E187L/E204Q/E69K/G107R/H137Y/K202T/L105A/L119I/N104T/N87E/Q56L/Q94N/R106L/R155S/R180D/S101N/S121R/S35A/S48T/T118I/V36M/W191S/Y140D/Y91S); experiment: as above; details: allele B4402; cell-free competition with fluorescently labeled control peptide, fluorescence polarization at 72 hours
Experimental: The cell-free class I HLA binding assay in use at Pure Protein, LLC allows for in vitro quantification of peptide-HLA binding affinity in a competition format. In this assay, a fluorescently labeled, high binding, control peptide is loaded onto 384-well ½-area plates along with unlabeled experimental peptides. To remove endogenous peptides and render the HLA A and B molecules receptive to binding, HLA is heated at 53°C for 15 minutes and immediately added to the assay. The mixture is then allowed to stand for three days. Once the mixture has reached steady equilibrium (at 72 hours), displacement of the high binding control peptide is measured through Fluorescence Polarization. Binding of experimental peptides is expressed as the percent inhibition of the labeled control peptide (experimental fluorescence / control fluorescence, multiplied by 100). The percent inhibition values for each experimental peptide (across a range of molar concentrations) are used to calculate the concentration which inhibits 50% of the labeled control peptide’s specific binding. This value is referred to as the peptide’s IC50.

[3] = target: T2, HLA-DRB1*1101 (Homo sapiens, UniProt P01903+P01911, A100R/A169T/A87E/I96F/K41T/L162R/M171V/P40S/Q125H/Q178H/Q39Y/Q99D/R42S/S66Y/T262R/V115G/W38E); experiment: In vitro class II HLA binding competition assay; details: competition with fluorescent-labeled reference peptide, class II HLA monomers, 24-hours, test peptide 100,000 nM to 100 nM, time-resolved fluorescence
T2 construct: purchased
Outline: (§1)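 First, limiting class II HLA monomers were incubated for 24 h with a fluorescent-labeled reference peptide and DMSO-dissolved test peptide at final concentrations of 100,000 nM to 100 nM. Next, HLA-peptide complexes were captured with anti-HLA-DR antibody. Finally, bound reference was quantified by europium time-resolved fluorescence and IC50 calculated.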

[4] = target: HLA-DRB1*0801 (Homo sapiens, UniProt P01903+P01911, A100R/A103L/A169T/D86S/F76Y/H45Y/I96F/K41T/L162R/M171V/P40S/Q125H/Q178H/Q39Y/Q99D/R218S/R42G/S66Y/V115G/W38E); experiment: In vitro class II HLA binding competition assay; details: competition with fluorescent-labeled reference peptide, class II HLA monomers, 24-hours, test peptide 100,000 nM to 100 nM, time-resolved fluorescence
Outline: as §1

[5] = target: T3, HLA-DRB1*0101 (Homo sapiens, UniProt P01903+P01911, A100R/D57E/F55L/F60I/F76Y/I96L/L162R/M171V/P40L/Q125E/R42F/V115G/Y59C); experiment: In vitro class II HLA binding competition assay; details: competition with fluorescent-labeled reference peptide, class II HLA monomers, 24-hours, test peptide 100,000 nM to 100 nM, time-resolved fluorescence
T3 construct: purchased
Outline: as §1

[6] = target: HLA-DRB1*0701 (Homo sapiens, UniProt P01903+P01911, A100R/A102G/A103Q/D57E/D86V/E43K/F76Y/K127E/L162R/M171V/P40G/Q125H/Q99D/R33Q/R42Y/R54Q/S133A/S66F/T210M/V115G/Y107V/Y59L/Y89S); experiment: In vitro class II HLA binding competition assay
Outline: as §1

[7] = target: T4, HLA-DRB1*0401 (Homo sapiens, UniProt P01903+P01911, A100K/A169T/F76Y/I96L/K127E/L162R/M171V/N62H/P40V/Q125Y/R42H/S133A/S149N/S66Y/V115G/V209L/W38E); experiment: In vitro class II HLA binding competition assay
T4 construct: purchased
Outline: as §1

[8] = target: HLA-DRB1*1301 (Homo sapiens, UniProt P01903+P01911, A100E/A169T/K41T/L162R/M171V/P40S/Q125H/Q178H/Q39Y/Q99D/R42S/S66N/T262R/W38E/Y61H); experiment: In vitro class II HLA binding competition assay; details: competition with fluorescent-labeled reference peptide, class II HLA monomers, 24-hours, test peptide 100,000 nM to 100 nM, time-resolved fluorescence
Outline: as §1

[9] = target: T5, HLA-DRB1*1501 (Homo sapiens, UniProt P01903+P01911); experiment: In vitro class II HLA binding competition assay
T5 construct: purchased
Outline: as §1

[10] = system: CD4 T cells co-cultured with autologous DCs from PBMCs; format: cell-based, human; details: positive = Stimulation Index ≥1.5-fold above baseline, 5 µg/mL peptide

CC[C@H](C)[C@H](NC(=O)[C@@H](N)CC(C)C)C(=O)N[C@@H](CCSC)C(=O)N[C@H](C(=O)N[C@@H](CC(C)C)C(=O)N[C@@H](CO)C(=O)N[C@@H](Cc1ccccc1)C(=O)N[C@@H](CC(C)C)C(=O)N[C@@H](Cc1ccccc1)C(=O)O)C(C)C [Cluster 387_3D7] (H-LIMVLSFLF-OH)
IC50 [1]: 19.3 µM

CC[C@H](C)[C@H](NC(=O)[C@H](CO)NC(=O)[C@H](CO)NC(=O)[C@H](CC(N)=O)NC(=O)[C@@H](NC(=O)[C@@H](NC(=O)[C@H](CC(N)=O)NC(=O)[C@H](Cc1ccccc1)NC(=O)[C@@H](N)C(C)C)C(C)C)C(C)C)C(=O)O [Cluster 377_3D7] (H-VFNVVNSSI-OH)
IC50 [1]: 11.6 µM

CC[C@H](C)[C@H](N)C(=O)N[C@@H](CCC(N)=O)C(=O)N[C@@H](CC(N)=O)C(=O)N[C@@H](CO)C(=O)N[C@@H](CC(C)C)C(=O)N[C@@H](CO)C(=O)N[C@H](C(=O)N[C@@H](CCC(=O)O)C(=O)N[C@@H](Cc1c[nH]c2ccccc12)C(=O)O)[C@@H](C)O [Cluster 323_3D7] (H-IQNSLSTEW-OH)
IC50 [1]: 21.3 µM | IC50 [2]: 136 µM

CC[C@H](C)[C@H](NC(C)=O)C(=O)N[C@H](C(=O)N[C@@H](CCC(=O)O)C(=O)N[C@@H](Cc1ccc(O)cc1)C(=O)N[C@@H](CC(C)C)C(=O)N[C@@H](CCCCN)C(=O)N[C@@H](CCCCN)C(=O)N[C@H](C(=O)N[C@@H](CCC(N)=O)C(=O)N[C@@H](CC(N)=O)C(=O)N[C@@H](CO)C(=O)N[C@@H](CC(C)C)C(=O)N[C@@H](CO)C(=O)N[C@H](C(=O)N[C@@H](CCC(=O)O)C(=O)N[C@@H](Cc1c[nH]c2ccccc12)C(=O)N[C@@H](CO)C(=O)N1CCC[C@H]1C(=O)N[C@@H](CS)C(=O)N[C@@H](CO)C(N)=O)[C@@H](C)O)[C@@H](C)CC)[C@@H](C)O [ICS2] (Ac-ITEYLKKIQNSLSTEWSPCS-NH2)
IC50 [3]: 43.7 µM | IC50 [4]: 4.76 µM | IC50 [5]: 83.9 µM | IC50 [6]: 20 µM | IC50 [7]: 0.377 µM | IC50 [8]: 73.2 µM | IC50 [9]: 8.47 µM | Percentage of donors demonstrating IFN-γ responses, DR1 ([10]; DR1 donors N=5, ICCS after 14-day co-culture): 40% | Percentage of donors demonstrating IL-2 responses, DR1 ([10]; DR1 donors N=5, ICCS): 40% | Percentage of donors demonstrating IL-4 responses, DR1 ([10]; DR1 donors N=5, ICCS): 0% | Percentage of donors demonstrating IL-10 responses, DR1 ([10]; DR1 donors N=5, ICCS): 0% | Percentage of donors demonstrating TNF-α responses, DR1 ([10]; DR1 donors N=5, ICCS): 40% | Percentage of donors demonstrating IFN-γ responses, DR3 ([10]; DR3 donors N=6, ICCS after 14-day co-culture): 33% | Percentage of donors demonstrating IL-2 responses, DR3 ([10]; DR3 donors N=6, ICCS): 33% | Percentage of donors demonstrating IL-4 responses, DR3 ([10]; DR3 donors N=6, ICCS): 33% | Percentage of donors demonstrating IL-10 responses, DR3 ([10]; DR3 donors N=6, ICCS): 33% | Percentage of donors demonstrating TNF-α responses, DR3 ([10]; DR3 donors N=6, ICCS): 17% | Percentage of donors demonstrating IFN-γ responses, DR4 ([10]; DR4 donors N=10, ICCS after 14-day co-culture): 40% | Percentage of donors demonstrating IL-2 responses, DR4 ([10]; DR4 donors N=10, ICCS): 20% | Percentage of donors demonstrating IL-4 responses, DR4 ([10]; DR4 donors N=10, ICCS): 10% | Percentage of donors demonstrating IL-10 responses, DR4 ([10]; DR4 donors N=10, ICCS): 0% | Percentage of donors demonstrating TNF-α responses, DR4 ([10]; DR4 donors N=10, ICCS): 50% | Percentage of donors demonstrating IFN-γ responses, DR7 ([10]; DR7 donors N=4, ICCS after 14-day co-culture): 50% | Percentage of donors demonstrating IL-2 responses, DR7 ([10]; DR7 donors N=4, ICCS): 0% | Percentage of donors demonstrating IL-4 responses, DR7 ([10]; DR7 donors N=4, ICCS): 0% | Percentage of donors demonstrating IL-10 responses, DR7 ([10]; DR7 donors N=4, ICCS): 0% | Percentage of donors demonstrating TNF-α responses, DR7 ([10]; DR7 donors N=4, ICCS): 25% | Percentage of donors demonstrating IFN-γ responses, DR8 ([10]; DR8 donors N=4, ICCS after 14-day co-culture): 50% | Percentage of donors demonstrating IL-2 responses, DR8 ([10]; DR8 donors N=4, ICCS): 25% | Percentage of donors demonstrating IL-4 responses, DR8 ([10]; DR8 donors N=4, ICCS): 0% | Percentage of donors demonstrating IL-10 responses, DR8 ([10]; DR8 donors N=4, ICCS): 25% | Percentage of donors demonstrating TNF-α responses, DR8 ([10]; DR8 donors N=4, ICCS): 50% | Percentage of donors demonstrating IFN-γ responses, DR9 ([10]; DR9 donors N=4, ICCS after 14-day co-culture): 0% | Percentage of donors demonstrating IL-2 responses, DR9 ([10]; DR9 donors N=4, ICCS): 25% | Percentage of donors demonstrating IL-4 responses, DR9 ([10]; DR9 donors N=4, ICCS): 0% | Percentage of donors demonstrating IL-10 responses, DR9 ([10]; DR9 donors N=4, ICCS): 0% | Percentage of donors demonstrating TNF-α responses, DR9 ([10]; DR9 donors N=4, ICCS): 25% | Percentage of donors demonstrating IFN-γ responses, DR11 ([10]; DR11 donors N=4, ICCS after 14-day co-culture): 25% | Percentage of donors demonstrating IL-2 responses, DR11 ([10]; DR11 donors N=4, ICCS): 25% | Percentage of donors demonstrating IL-4 responses, DR11 ([10]; DR11 donors N=4, ICCS): 0% | Percentage of donors demonstrating IL-10 responses, DR11 ([10]; DR11 donors N=4, ICCS): 0% | Percentage of donors demonstrating TNF-α responses, DR11 ([10]; DR11 donors N=4, ICCS): 50% | Percentage of donors demonstrating IFN-γ responses, DR13 ([10]; DR13 donors N=7, ICCS after 14-day co-culture): 57% | Percentage of donors demonstrating IL-2 responses, DR13 ([10]; DR13 donors N=7, ICCS): 29% | Percentage of donors demonstrating IL-4 responses, DR13 ([10]; DR13 donors N=7, ICCS): 14% | Percentage of donors demonstrating IL-10 responses, DR13 ([10]; DR13 donors N=7, ICCS): 29% | Percentage of donors demonstrating TNF-α responses, DR13 ([10]; DR13 donors N=7, ICCS): 71% | Percentage of donors demonstrating IFN-γ responses, DR15 ([10]; DR15 donors N=7, ICCS after 14-day co-culture): 43% | Percentage of donors demonstrating IL-2 responses, DR15 ([10]; DR15 donors N=7, ICCS): 14% | Percentage of donors demonstrating IL-4 responses, DR15 ([10]; DR15 donors N=7, ICCS): 0% | Percentage of donors demonstrating IL-10 responses, DR15 ([10]; DR15 donors N=7, ICCS): 14% | Percentage of donors demonstrating TNF-α responses, DR15 ([10]; DR15 donors N=7, ICCS): 29%
